{"source": "paper PMC9086285", "about": "“Catalytic Features and Thermal Adaptation Mechanisms of a Deep Sea Bacterial Cutinase-Type Poly(Ethylene Terephthalate) Hydrolase” (Frontiers in Bioengineering and Biotechnology, 2022)", "key": {"IsPETase": {"biological_target": "T1, IsPETase (Pseudideonella sakaiensis, UniProt A0A0K8P6T7)", "T1 construct": "gene ISF6_4831; purified enzyme; expression construct not described", "T1 sequence (A0A0K8P6T7 28-290)": "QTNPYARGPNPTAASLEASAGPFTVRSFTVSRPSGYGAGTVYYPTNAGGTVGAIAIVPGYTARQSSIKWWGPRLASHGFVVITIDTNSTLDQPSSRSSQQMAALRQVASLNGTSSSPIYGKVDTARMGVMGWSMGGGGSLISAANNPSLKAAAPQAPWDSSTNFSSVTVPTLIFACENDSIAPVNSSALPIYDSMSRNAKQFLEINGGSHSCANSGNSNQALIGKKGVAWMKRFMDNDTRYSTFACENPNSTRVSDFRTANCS", "experiment": "inhibition of mp-PET hydrolysis, HPLC of products", "type": "biochemical", "conditions": "1 mM MHET, mp-PET substrate, 40°C, pH 8.5, 10 mM CaCl2, 72 h; product inhibition"}, "ICCG": {"biological_target": "T2, ICCG (unidentified prokaryotic organism, UniProt G9BY57, Y127G/D238C/F243I/S283C)", "T2 construct": "quadruple variant of LCC; only D238C/S283C given, the other two changes (F243I, Y127G) known from Tournier et al. 2020; expression construct not described; PDB 6THT given as the ICCG structure used for modelling", "T2 sequence (G9BY57 36-293 Y127G/D238C/F243I/S283C)": "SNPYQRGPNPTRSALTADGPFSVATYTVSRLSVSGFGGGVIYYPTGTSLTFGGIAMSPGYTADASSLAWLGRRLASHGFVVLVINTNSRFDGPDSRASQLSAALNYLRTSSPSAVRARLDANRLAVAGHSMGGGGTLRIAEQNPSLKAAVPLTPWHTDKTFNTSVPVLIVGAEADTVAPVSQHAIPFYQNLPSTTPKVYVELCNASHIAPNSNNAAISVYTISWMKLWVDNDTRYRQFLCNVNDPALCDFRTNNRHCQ", "experiment": "inhibition of mp-PET hydrolysis, HPLC of products", "type": "biochemical", "conditions": "1 mM MHET, mp-PET substrate, 40°C, pH 8.5, 10 mM CaCl2, 72 h; product inhibition"}}, "data": [{"smiles": "O=C(O)c1ccc(C(=O)OCCO)cc1", "note": "[MHET]", "values": [{"measurement": "inhibition at 1 mM", "setting": "IsPETase", "result": "in the presence of MHET, significant inhibitory effects were detected toward IsPETase and ICCG"}, {"measurement": "inhibition at 1 mM", "setting": "ICCG", "result": "in the presence of MHET, significant inhibitory effects were detected toward IsPETase and ICCG"}]}]}
